Measurements published in patent publication US6825217B2, “Carbinols for the treatment of neuropathic dysfunction” (Endo Pharmaceuticals, Inc., priority 2001, dated 2004).

Key:
[1] = tested on: prostaglandin synthesase; test: Prostaglandin synthesase inhibition; assay type: biochemical
[2] = Rat tooth pulp; assay type: in vivo; conditions: unmarked entry of animal model table
[3] = Safety pharmacology, monkey; assay type: in vivo
[4] = Five-day Oral Dose Escalation in Beagle Dogs; assay type: in vivo, Beagle dog
[5] = Formalin model; assay type: in vivo; conditions: rat
Source text: Formalin induces inflammatory stimulation of peripheral nerves that results in sensitization of CNS nociceptive transmission pathways. There are two phases of formalin-induced nociception: phase I—an acute nociceptive component; and phase II—a chronic nociceptive component characterized by hyperalgesia.
On the morning of formalin testing, a small metal band (0.5 g) was loosely placed around the right hind paw. The rat was placed in a cylindrical Plexiglas chamber for adaptation for a minimum of 30 minutes. Compound A, venlafaxine or a saline control was administered into the dorsal surface of the right hindpaw of the rat. The animal was then placed into the chamber of the automated formalin apparatus where movement of the formalin-injected paw was monitored and the number of paw flinches tallied by minute over the next sixty minutes. Upon completion of the test the animal was removed and euthanized.

[6] = Rat Tail-Flick; assay type: in vivo; design: key to activity in rat Tail Flick model: *: Inactive; Φ: Weakly active
[7] = Safety pharmacology, dog; assay type: in vivo
[8] = Dog tooth pulp; assay type: in vivo; conditions: unmarked entry of animal model table
[9] = Safety pharmacology, mouse; assay type: in vivo
[10] = Monkey tail dip; assay type: in vivo; conditions: unmarked entry of animal model table
[11] = all administered doses, versus saline control

SMILES: CN1CCC(c2ccsc2)(C(C)(C)O)CC1 [Compound A, 4-(3-thienyl)-α,α,1-trimethyl-4-piperidinemethanol]
- inhibition of prostaglandin synthesase activity [1]: does not inhibit
- activity in rat Tooth pulp model [2]: showed activity
- MTD ([3]; in vivo, other: iv/sc): 16 to 32 mg/kg
- LD ([3]; iv/sc): LD = 1.6-32 mg/kg
- physical dep ([3]; iv/sc): non-opioid
- respiratory depression, multiple of effective dose (mg/kg) ([3]; iv/sc): 16/32
- Chronic dosing: effect at 0.4 ([3]; iv/sc, 0.4, at 7 days): 0.4 = retching
- Chronic dosing: effect at 1.6 ([3]; iv/sc, 1.6, at 11 days): 1.6 = death
- Chronic dosing: effect at 1.6 ([3]; iv/sc, 1.6, at 20 days): 1.6 = death
- NOEL (mydriasis) [4]: NOEL < 2.5 mg/kg
- MTD at 5 day ([4]; dog, in vivo, read-out: MTD (decreased BW)): < 20 mg/kg
- effect upon hyperalgesia induced by injection of formalin into the paw [5]: reliable dose dependent effect
- formalin test, paw flinches, phase I ([5]; all administered doses (200/100/50 mg per kg), versus saline control): statistically significant effects
- formalin test, paw flinches, phase II [5, 11]: statistically significant effects
- formalin test, paw flinches, phase IIA [5, 11]: statistically significant effects
- formalin test, paw flinches, Phase IIB ([5]; versus saline control): No statistical significance
- Rat Tail-Flick [6]: Inactive
- activity in rat Tail Flick model [6]: Tail Flick*
- MTD ([7]; in vivo): 20 mg/kg
- hypotension/decreased cardiac contractility, anemia, multiple of effective dose ([7]; iv-pentobarb): 10 X
- emesis/anorexia BW loss, multiple of effective dose ([7]; po): 1-10 X
- respiratory acidosis, multiple of effective dose ([7]; po): 10 X
- activity in dog Tooth pulp model [8]: showed activity
- LD ([9]; po): LD = 900 mg/kg-po
- cross-tolerance to morphine, multiple of effective dose ([9]; po/iv): 1-50 X
- inhibition of GI motility, multiple of effective dose ([9]; po/iv): 1 X
- mydriasis, multiple of effective dose ([9]; po/iv): 1 X
- activity in monkey Tail dip model [10]: showed activity
